We go through two compounds from patent EP0137439A2, “Antitumour agent” (Henkel Kommanditgesellschaft auf Aktien, priority 1983, dated 1985).

The subject of this test is Tumorart P 388 (Leukämie). The experiment in a line: P 388 leukemia survival test in mice, NCI protocol 1200. Type of test: in vivo, Mäusen. Particulars: P 388 i.p. in mice; for 30 Tage überlebende Tiere (von 6): animals out of 6 alive at 30 days; for T/C-Wert: aqueous 1% injection solution, rate of survival prolongation vs untreated animals. An excerpt: Epoxid-0: gef. 18,94 %, ber. 18,82 % Die nachfolgenden Versuche wurden durchgeführt nach Testvorschriften des National Cancer Institute Bethesda, Maryland 200014, veröffentlicht in "Cancer Chemotherapy Reports" Part. 3, September 1972, Vol. 3, Nr. 2. Als Wirksubstanz wurde 1,2-Diglycidyl-4-diglycidylamino- urazol des vorstehenden Beispiels 1 verwendet. Die Substanz wurde als wäßrige, 1%ige In jektions lösung unmittelbar vor der Applikation frisch hergestellt.
Bei Mäusen wurde gemäß Protokoll 1200 (S. 91c) die Tumorart P 388 (Leukämie) i.p. mit […] gesetzt. Die mittlere Uberlebensdauer der unbehandelten Tiere wird bestimmt.
In weiteren Versuchsgruppen wird entsprechend vorbehandelten Tieren der Wirkstoff applizi-ert. Es wird eine signifikante Verlängerung der Lebensdauer der behandelten Testtiere gegenüber der mittleren Überlebensdauer der nicht mit dem Wirkstoff behandelten Tiere erzielt. Die Verlängerungsrate T/C in Abhängigkeit von der Dosierung des Wirkstoffes ist in der folgenden Tabelle zusammengestellt: […]

In the case of `O=c1n(CC2CO2)c(=O)n(CC2CO2)n1CC1CO1` (stereo not drawn) [Triglycidylurazol], the “30 Tage überlebende Tiere (von 6)” value is 4 (dose 25 mg/kg) and 6 (dose 50 mg/kg). For the same compound, the T/C-Wert reads like this: (dose 25 mg/kg) 260; (dose 50 mg/kg) 300; (dose 6,25 mg/kg) 180; (dose 12,5 mg/kg) 230.
For `O=c1n(N(CC2CO2)CC2CO2)c(=O)n(CC2CO2)n1CC1CO1` (stereo not drawn) [1,2-Diglycidyl-4-diglycidyl-aminourazol, 1,2-Diglycidyl-4-diglycidylamino-urazol], the T/C-Wert is recorded as 155 (dose 25 mg/kg), greater than 300 (dose 50 mg/kg), 291 (dose 6,25 mg/kg) and 142 (dose 12,5 mg/kg). The “30 Tage überlebende Tiere (von 6)” value is, setting by setting: (dose 50 mg/kg) 6; (dose 6,25 mg/kg) 3.
